We go through 22 compounds from ChEMBL document CHEMBL3044896, “A facile route for the synthesis 1,4-disubstituted tetrazolone derivatives and evaluation of their antimicrobial activity” (2013).

Test [1] relates to Klebsiella aerogenes. The test can be described thus: Antibacterial activity against Enterobacter aerogenes NCIM 5139 at 100 ug/ml after 18 to 24 hr by agar well diffusion method. Type of test: functional. Particulars: read-out: IZ. On the technique in general: Agar diffusion results depend on both activity and mobility in agar.
Test [2] has as its system Bacillus subtilis. Kind of test: Antibacterial activity against Bacillus subtilis ATCC 6633 at 100 ug/ml after 18 to 24 hr by agar well diffusion method. Format: functional. To be noted: read-out: IZ.
For test [3], the system named is Aspergillus niger. Kind of test: Antifungal activity against Aspergillus niger at 100 ug/ml after 48 hr by agar well diffusion method. To be noted: read-out: IZ. Type of test: functional.
Test [4] relates to Escherichia coli. Kind of test: Antibacterial activity against Escherichia coli ATCC 2343 at 100 ug/ml after 18 to 24 hr by agar well diffusion method. Type of test: functional. To be noted: read-out: IZ.
Test [5] deals with Staphylococcus aureus. The test can be described thus: Antibacterial activity against Staphylococcus aureus ATCC 29737 at 100 ug/ml after 18 to 24 hr by agar well diffusion method. Format: functional. To be noted: read-out: IZ.
The subject of test [6] is Candida albicans. The test can be described thus: Antifungal activity against Candida albicans at 100 ug/ml after 48 hr by agar well diffusion method. To be noted: read-out: IZ. Type of test: functional.
Test [7] has as its system Escherichia coli. Kind of test: microbe, parasite or virus in culture. Particulars: ATCC 2343, read-out: IZ.
Description: Antibacterial activity against Escherichia coli ATCC 2343 at 40 ug/ml after 18 to 24 hr by agar well diffusion method
In test [8] the test system is Staphylococcus aureus. The test can be described thus: microbe, parasite or virus in culture. To be noted: ATCC 29737, read-out: IZ.
Description: Antibacterial activity against Staphylococcus aureus ATCC 29737 at 40 ug/ml after 18 to 24 hr by agar well diffusion method
Test [9] has as its system Klebsiella aerogenes. Kind of test: Antibacterial activity against Enterobacter aerogenes NCIM 5139 at 40 ug/ml after 18 to 24 hr by agar well diffusion method. Format: functional. To be noted: read-out: IZ.
For test [10], the system named is Bacillus subtilis. The test can be described thus: microbe, parasite or virus in culture. To be noted: ATCC 6633, read-out: IZ.
Description: Antibacterial activity against Bacillus subtilis ATCC 6633 at 40 ug/ml after 18 to 24 hr by agar well diffusion method
In test [11] the test system is Aspergillus niger. The test can be described thus: Antifungal activity against Aspergillus niger at 30 ug/ml after 48 hr by agar well diffusion method. To be noted: read-out: IZ. Type of test: functional.
Test [12] deals with Candida albicans. The test can be described thus: Antifungal activity against Candida albicans at 30 ug/ml after 48 hr by agar well diffusion method. Type of test: functional. To be noted: read-out: IZ.

As to `CCOC(=O)/C(=C/c1ccc(Cl)cc1)Cn1nnn(-c2ccc(C(F)(F)F)cc2)c1=O`, the zone of inhibition at 100 µg/mL in the test on Klebsiella aerogenes [1] was determined as 11 mm; in the test on Bacillus subtilis [2], 15 mm; with Aspergillus niger [3], 9 mm; in the test with Escherichia coli [4] it was 9 mm; with Staphylococcus aureus [5], 15 mm.
As for `COC(=O)/C(=C/c1ccc([N+](=O)[O-])cc1)Cn1nnn(-c2ccc(OC)cc2)c1=O`, the zone of inhibition at 100 µg/mL with Klebsiella aerogenes [1] turned out to be 8 mm; in the test on Bacillus subtilis [2], 10 mm; with Escherichia coli [4], 6 mm; with Staphylococcus aureus [5], 12 mm.
As for `COC(=O)/C(=C/c1ccc([N+](=O)[O-])cc1)Cn1nnn(-c2ccc(C(F)(F)F)cc2)c1=O`, the zone of inhibition at 100 µg/mL came out at 8 mm with Klebsiella aerogenes [1]; 10 mm in the test on Bacillus subtilis [2]; 11 mm with Aspergillus niger [3]; 12 mm with Candida albicans [6]; 6 mm in the test on Escherichia coli [4]; 12 mm in the test with Staphylococcus aureus [5].
`COC(=O)/C(=C/c1ccc(OC)cc1)Cn1nnn(-c2ccc(OC)cc2)c1=O`: the zone of inhibition at 100 µg/mL in the test with Bacillus subtilis [2] is 16 mm; in the test on Aspergillus niger [3] it was 16 mm; in the test on Candida albicans [6] it was 17 mm; with Staphylococcus aureus [5], 17 mm.
With `COC(=O)/C(=C/c1ccc(OC)c(OC)c1)Cn1nnn(-c2ccc(OC)cc2)c1=O`, the zone of inhibition at 100 µg/mL was determined as 17 mm with Klebsiella aerogenes [1] and 9 mm with Escherichia coli [4].
Regarding `COc1ccc(-n2nnn(C/C(C#N)=C/c3ccccc3)c2=O)cc1`, the zone of inhibition at 100 µg/mL in the test with Klebsiella aerogenes [1] worked out at 11 mm; in the test with Bacillus subtilis [2], 12 mm; in the test with Aspergillus niger [3], 6 mm; in the test on Candida albicans [6], 9 mm; in the test with Escherichia coli [4], 7 mm; in the test with Staphylococcus aureus [5], 17 mm.
Turning to `N#C/C(=C\c1ccccc1)Cn1nnn(-c2ccc(C(F)(F)F)cc2)c1=O`, the zone of inhibition at 100 µg/mL in the test with Klebsiella aerogenes [1] came out at 19 mm; with Bacillus subtilis [2], 23 mm; in the test with Aspergillus niger [3], 16 mm; with Candida albicans [6], 15 mm; in the test on Escherichia coli [4], 9 mm; in the test with Staphylococcus aureus [5] it was 22 mm.
For `N#C/C(=C\c1ccc(Cl)cc1)Cn1nnn(-c2ccc(C(F)(F)F)cc2)c1=O`, the zone of inhibition at 100 µg/mL is 14 mm in the test on Klebsiella aerogenes [1]; 7 mm in the test on Bacillus subtilis [2]; 5 mm in the test with Aspergillus niger [3]; 7 mm with Escherichia coli [4]; 13 mm in the test on Staphylococcus aureus [5].
Take `Cc1ccc(/C=C(\C#N)Cn2nnn(-c3ccccc3)c2=O)cc1`: the zone of inhibition at 100 µg/mL in the test with Klebsiella aerogenes [1] is 14 mm; in the test on Bacillus subtilis [2], 16 mm; with Aspergillus niger [3], 4 mm; in the test with Candida albicans [6], 7 mm; in the test with Escherichia coli [4], 8 mm; in the test with Staphylococcus aureus [5], 17 mm.
On to `COc1ccc(-n2nnn(C/C(C#N)=C/c3ccc(C)cc3)c2=O)cc1`, for which the zone of inhibition at 100 µg/mL in the test with Klebsiella aerogenes [1] was 16 mm; in the test with Bacillus subtilis [2], 16 mm; with Aspergillus niger [3], 15 mm; in the test with Candida albicans [6], 19 mm; with Escherichia coli [4] it was 14 mm; with Staphylococcus aureus [5], 19 mm.
As for `Cc1ccc(/C=C(\C#N)Cn2nnn(-c3ccc(C(F)(F)F)cc3)c2=O)cc1`, the zone of inhibition at 100 µg/mL came to 6 mm in the test with Klebsiella aerogenes [1] and 3 mm in the test with Escherichia coli [4].
Take `COc1ccc(/C=C(\C#N)Cn2nnn(-c3ccc(OC)cc3)c2=O)cc1`: the zone of inhibition at 100 µg/mL with Klebsiella aerogenes [1] was determined as 19 mm; in the test with Bacillus subtilis [2] it was 18 mm; with Aspergillus niger [3], 14 mm; with Candida albicans [6] it was 16 mm; with Escherichia coli [4], 14 mm; in the test with Staphylococcus aureus [5] it was 21 mm.
Regarding `COc1ccc(/C=C(\C#N)Cn2nnn(-c3ccc(C(F)(F)F)cc3)c2=O)cc1`, the zone of inhibition at 100 µg/mL in the test with Klebsiella aerogenes [1] was 12 mm; in the test with Bacillus subtilis [2], 11 mm; in the test with Aspergillus niger [3], 11 mm; in the test with Candida albicans [6], 16 mm; with Escherichia coli [4] it was 5 mm; in the test on Staphylococcus aureus [5], 16 mm.
As for `COc1ccc(-n2nnn(C/C(C#N)=C/c3ccc(OC)c(OC)c3)c2=O)cc1`, the zone of inhibition at 100 µg/mL in the test with Klebsiella aerogenes [1] worked out at 16 mm; with Bacillus subtilis [2], 11 mm; with Candida albicans [6] it was 4 mm; in the test on Escherichia coli [4], 7 mm; in the test on Staphylococcus aureus [5], 21 mm.
As to `COc1ccc(/C=C(\C#N)Cn2nnn(-c3ccc(C(F)(F)F)cc3)c2=O)cc1OC`, the zone of inhibition at 100 µg/mL in the test on Klebsiella aerogenes [1] was 12 mm; in the test with Bacillus subtilis [2] it was 14 mm; in the test on Aspergillus niger [3] it was 10 mm; with Candida albicans [6], 16 mm; in the test with Escherichia coli [4], 7 mm; with Staphylococcus aureus [5], 16 mm.
Regarding `COC(=O)/C(=C/c1ccc(F)cc1)Cn1nnn(-c2ccccc2)c1=O`, the zone of inhibition at 100 µg/mL is 3 mm in the test on Klebsiella aerogenes [1]; 6 mm with Bacillus subtilis [2]; 3 mm in the test with Aspergillus niger [3]; 4 mm in the test on Escherichia coli [4]; 7 mm in the test on Staphylococcus aureus [5].
With `COC(=O)/C(=C/c1ccc(F)cc1)Cn1nnn(-c2ccc(OC)cc2)c1=O`, the zone of inhibition at 100 µg/mL stood at 15 mm with Klebsiella aerogenes [1]; 19 mm in the test with Bacillus subtilis [2]; 18 mm in the test with Aspergillus niger [3]; 17 mm with Candida albicans [6]; 18 mm with Escherichia coli [4]; 15 mm in the test with Staphylococcus aureus [5].
`COC(=O)/C(=C/c1ccc(Cl)cc1)Cn1nnn(-c2ccc(OC)cc2)c1=O`: the zone of inhibition at 100 µg/mL in the test on Klebsiella aerogenes [1] is 6 mm; in the test with Bacillus subtilis [2] it was 14 mm; in the test with Candida albicans [6], 5 mm; in the test on Escherichia coli [4], 5 mm; in the test on Staphylococcus aureus [5] it was 7 mm.
`CCOC(=O)/C(=C/c1ccc(Cl)cc1)Cn1nnn(-c2ccc(OC)cc2)c1=O`: the zone of inhibition at 100 µg/mL stood at 20 mm in the test with Bacillus subtilis [2], 11 mm in the test on Aspergillus niger [3], 12 mm in the test on Candida albicans [6] and 22 mm in the test on Staphylococcus aureus [5].
As for `CCOC(=O)/C(=C/c1ccc(Cl)cc1)Cn1nnn(-c2ccccc2)c1=O`, the zone of inhibition at 100 µg/mL worked out at 17 mm in the test with Klebsiella aerogenes [1]; 20 mm in the test with Bacillus subtilis [2]; 16 mm with Aspergillus niger [3]; 18 mm in the test on Candida albicans [6]; 19 mm with Escherichia coli [4]; 23 mm in the test on Staphylococcus aureus [5].
In the case of `O=C(O)c1cn(C2CC2)c2cc(N3CCNCC3)c(F)cc2c1=O` [CIPROFLOXACIN], the zone of inhibition at 40 µg/mL was 18 mm with Escherichia coli [7], 22 mm in the test on Staphylococcus aureus [8], 24 mm in the test on Klebsiella aerogenes [9] and 10 mm with Bacillus subtilis [10].
Turning to `CCC(C)n1ncn(-c2ccc(N3CCN(c4ccc(OCC5COC(Cn6cncn6)(c6ccc(Cl)cc6Cl)O5)cc4)CC3)cc2)c1=O` (configuration not stated) [ITRACONAZOLE], the zone of inhibition at 30 µg/mL in the test with Aspergillus niger [11] is 17 mm; in the test with Candida albicans [12] it was 20 mm.
